Laboratory results published in the CheMixHub viscosity set.
Values joined by “and” are separate entries in the source; they are usually repeats but may differ in a detail not shown here. Identical values can stand only once.

Tests used:
[1] = xn = mol fraction of the nth substance listed

CCCCCCCCBr
101 kPa
Settings	viscosity [mPa·s]
293.15 K	1.544
303.55 K	1.406
313.65 K	1.204

CCOCCO
viscosity
Settings	293.15 K	298.15 K	303 K	303.15 K	308.15 K	313 K	313.15 K	318.15 K	323.15 K
100 kPa	–	1.92 mPa·s	–	1.682 mPa·s	–	–	–	–	–
101 kPa	2.054 mPa·s	1.814 mPa·s	1.67 mPa·s	–	1.487 mPa·s and 1.453 mPa·s and 1.469 mPa·s	1.341 mPa·s	1.336 mPa·s and 1.341 mPa·s and 1.368 mPa·s	1.279 mPa·s	1.065 mPa·s
101.3 kPa	2.04 mPa·s	1.819 mPa·s	–	1.631 mPa·s	1.402 mPa·s and 1.47 mPa·s	–	1.332 mPa·s	1.212 mPa·s	1.108 mPa·s
101.33 kPa	–	–	–	–	–	–	–	1.18 mPa·s	–

CNC(C)=O
viscosity
Settings	293.15 K	298.15 K	303.15 K	303.18 K	308.15 K	313 K	313.15 K	318.15 K
101 kPa	5.56 mPa·s	4.771 mPa·s	4.087 mPa·s and 3.822 mPa·s (2×)	3.65 mPa·s	3.535 mPa·s	3.012 mPa·s	3.078 mPa·s and 2.904 mPa·s	2.764 mPa·s and 2.607 mPa·s
101.33 kPa	–	–	–	–	3.38 mPa·s	–	3.012 mPa·s and 3.004 mPa·s	2.673 mPa·s

Cn1cc[n+](CCCC#N)c1.O=S(=O)([O-])C(F)(F)F
101 kPa
Settings	viscosity [mPa·s]
293.15 K	811.5
298.15 K	580.6
303.15 K	422.5
308.15 K	310.1
313.15 K	230.6
318.15 K	177.1
323.15 K	141.4

N#C[C-](C#N)C#N.OCCC[n+]1ccccc1
101 kPa
Settings	viscosity [mPa·s]
293.15 K	126.3
298.15 K	92.54
303.15 K	69.51
308.15 K	53.84
313.15 K	42.53
318.15 K	34.64
323.15 K	28.1

CC(C)CCO + OCCCO
viscosity [mPa·s], [1], 100 kPa
Settings	x1 = 0.0679	x1 = 0.1388	x1 = 0.218	x1 = 0.3009	x1 = 0.4084	x1 = 0.4979	x1 = 0.6034	x1 = 0.7212	x1 = 0.8537
298.15 K	37.92	35.56	32.86	29.98	26.12	22.84	18.89	14.42	9.305
303.15 K	30.13	28.24	26.14	23.83	20.79	18.2	15.09	11.57	7.532
308.15 K	25.86	24.27	22.55	20.66	18.08	15.91	13.3	10.25	6.745

CC(C)CCO + OCCO
viscosity [mPa·s], [1], 100 kPa
Settings	x1 = 0.0538	x1 = 0.1127	x1 = 0.1769	x1 = 0.2492	x1 = 0.3333	x1 = 0.4312	x1 = 0.5385	x1 = 0.6667	x1 = 0.8167
298.15 K	17.29	16.59	15.84	14.92	13.82	12.46	10.93	8.999	6.622
303.15 K	13.53	13.1	12.52	11.8	10.97	9.889	8.629	7.087	5.243
308.15 K	11.48	11.11	10.72	10.22	9.549	8.689	7.683	6.336	4.792

CCOCCO + OCCO
[1]
Settings	viscosity [mPa·s]
293.15 K, 101 kPa, x1 = 0.0582	18.48
293.15 K, 101 kPa, x1 = 0.0952	16.68
293.15 K, 101 kPa, x1 = 0.2037	11.81
293.15 K, 101 kPa, x1 = 0.3098	7.965
293.15 K, 101 kPa, x1 = 0.4062	5.445
293.15 K, 101 kPa, x1 = 0.4503	4.568
293.15 K, 101 kPa, x1 = 0.5003	3.813
293.15 K, 101 kPa, x1 = 0.5413	3.301
293.15 K, 101 kPa, x1 = 0.5988	2.777
293.15 K, 101 kPa, x1 = 0.6952	2.401
293.15 K, 101 kPa, x1 = 0.8031	2.264
293.15 K, 101 kPa, x1 = 0.9002	2.143
293.15 K, 101 kPa, x1 = 0.9508	2.121
293.15 K, 101.33 kPa, x2 = 0.0923	2.519
293.15 K, 101.33 kPa, x2 = 0.2349	3.38
293.15 K, 101.33 kPa, x2 = 0.3267	4.07
293.15 K, 101.33 kPa, x2 = 0.4103	4.91
293.15 K, 101.33 kPa, x2 = 0.4957	6.008
293.15 K, 101.33 kPa, x2 = 0.5486	6.84
293.15 K, 101.33 kPa, x2 = 0.6451	8.722
293.15 K, 101.33 kPa, x2 = 0.7319	10.9
293.15 K, 101.33 kPa, x2 = 0.7782	12.29
293.15 K, 101.33 kPa, x2 = 0.8336	14.04
293.15 K, 101.33 kPa, x2 = 0.9075	16.88
293.15 K, 101.33 kPa, x2 = 0.9556	19.08
298.15 K, 101 kPa, x1 = 0.0423	15.82
298.15 K, 101 kPa, x1 = 0.1127	13.26
298.15 K, 101 kPa, x1 = 0.1983	10.12
298.15 K, 101 kPa, x1 = 0.2953	7.192
298.15 K, 101 kPa, x1 = 0.3988	4.883
298.15 K, 101 kPa, x1 = 0.4532	4.022
298.15 K, 101 kPa, x1 = 0.5005	3.474
298.15 K, 101 kPa, x1 = 0.5429	3.085
298.15 K, 101 kPa, x1 = 0.593	2.739
298.15 K, 101 kPa, x1 = 0.6905	2.349
298.15 K, 101 kPa, x1 = 0.8044	2.188
298.15 K, 101 kPa, x1 = 0.8963	2.021
298.15 K, 101 kPa, x1 = 0.9496	1.94
303.15 K, 101 kPa, x1 = 0.0596	12.4
303.15 K, 101 kPa, x1 = 0.1011	11.29
303.15 K, 101 kPa, x1 = 0.1976	8.571
303.15 K, 101 kPa, x1 = 0.3002	5.937
303.15 K, 101 kPa, x1 = 0.3989	4.122
303.15 K, 101 kPa, x1 = 0.4504	3.447
303.15 K, 101 kPa, x1 = 0.4926	2.988
303.15 K, 101 kPa, x1 = 0.5502	2.554
303.15 K, 101 kPa, x1 = 0.6034	2.237
303.15 K, 101 kPa, x1 = 0.7013	1.974
303.15 K, 101 kPa, x1 = 0.8026	1.954
303.15 K, 101 kPa, x1 = 0.8923	1.933
303.15 K, 101 kPa, x1 = 0.9401	1.883

CC[N+](CC)(CC)CC.[Br-] + OCCO
viscosity [mPa·s], [1], 100 kPa
Settings	298 K	298.15 K	308 K	318 K
x1 = 0.333	–	37.5	–	–
x2 = 0.75	28	–	18.5	13
